Results taken from ChEMBL document CHEMBL5303573, “Mapping human microbiome drug metabolism by gut bacteria and their genes” (Nature, 2019).

How the values were obtained:
[1] = The drug is tested on Bacteroides fragilis strain: HMW615 for biotransformation. The drug concentrations were measured before and after a 12-h incubation by liquid-chromatography-coupled mass spectrometry (LC–MS); conditions: 2 µM
[2] = The drug is tested on Bacteroides uniformis strain: ATCC8492 for biotransformation. The drug concentrations were measured before and after a 12-h incubation by liquid-chromatography-coupled mass spectrometry (LC–MS); conditions: 2 µM
[3] = The drug is tested on Anaerococcus hydrogenalis strain: DSM7454 for biotransformation. The drug concentrations were measured before and after a 12-h incubation by liquid-chromatography-coupled mass spectrometry (LC–MS); conditions: 2 µM
[4] = The drug is tested on Providencia stuartii strain: ATCC25827 for biotransformation. The drug concentrations were measured before and after a 12-h incubation by liquid-chromatography-coupled mass spectrometry (LC–MS); conditions: 2 µM
[5] = The drug is tested on Dorea formicigenerans strain: ATCC27755 for biotransformation. The drug concentrations were measured before and after a 12-h incubation by liquid-chromatography-coupled mass spectrometry (LC–MS); conditions: 2 µM
[6] = The drug is tested on Bacteroides finegoldii strain: DSM17565 for biotransformation. The drug concentrations were measured before and after a 12-h incubation by liquid-chromatography-coupled mass spectrometry (LC–MS); conditions: 2 µM
[7] = The drug is tested on Bacteroides fragilis strain: HMW610 for biotransformation. The drug concentrations were measured before and after a 12-h incubation by liquid-chromatography-coupled mass spectrometry (LC–MS); conditions: 2 µM
[8] = The drug is tested on Eubacterium hallii strain: DSM3353 for biotransformation. The drug concentrations were measured before and after a 12-h incubation by liquid-chromatography-coupled mass spectrometry (LC–MS); conditions: anaerobutyricum hallii, 2 µM
[9] = The drug is tested on Eubacterium rectale strain: ATCC33656 for biotransformation. The drug concentrations were measured before and after a 12-h incubation by liquid-chromatography-coupled mass spectrometry (LC–MS); conditions: agathobacter rectalis, 2 µM
[10] = parabacteroides distasonis, 12 h, 2 µM
Description: The drug is tested on Parabacteroides distasonis strain: ATCC8503 for biotransformation. The drug concentrations were measured before and after a 12-h incubation by liquid-chromatography-coupled mass spectrometry (LC–MS)

[11] = The drug is tested on Coprococcus comes strain: ATCC27758 for biotransformation. The drug concentrations were measured before and after a 12-h incubation by liquid-chromatography-coupled mass spectrometry (LC–MS); assay type: ADME; set-up: dose 2 uM, timepoint 0 vs 12 hours; conditions: 2 µM
[12] = The drug is tested on Subdoligranulum variabile strain: DSM15176 for biotransformation. The drug concentrations were measured before and after a 12-h incubation by liquid-chromatography-coupled mass spectrometry (LC–MS); conditions: 2 µM
[13] = The drug is tested on Bifidobacterium longum subsp. Infantis strain: CCUG52486 for biotransformation. The drug concentrations were measured before and after a 12-h incubation by liquid-chromatography-coupled mass spectrometry (LC–MS); conditions: 2 µM
[14] = The drug is tested on Bifidobacterium breve strain: DSM20213 for biotransformation. The drug concentrations were measured before and after a 12-h incubation by liquid-chromatography-coupled mass spectrometry (LC–MS); conditions: 2 µM
[15] = The drug is tested on Collinsella aerofaciens strain: ATCC25986 for biotransformation. The drug concentrations were measured before and after a 12-h incubation by liquid-chromatography-coupled mass spectrometry (LC–MS); conditions: 2 µM
[16] = bacteroides fragilis, 12 h, 2 µM
Description: The drug is tested on Bacteroides fragilis strain: 3397 (T10) for biotransformation. The drug concentrations were measured before and after a 12-h incubation by liquid-chromatography-coupled mass spectrometry (LC–MS)

[17] = The drug is tested on Anaerotruncus colihominis strain: DSM17241 for biotransformation. The drug concentrations were measured before and after a 12-h incubation by liquid-chromatography-coupled mass spectrometry (LC–MS); conditions: 2 µM
[18] = The drug is tested on Escherichia coli strain: BW25113 for biotransformation. The drug concentrations were measured before and after a 12-h incubation by liquid-chromatography-coupled mass spectrometry (LC–MS); conditions: 2 µM
[19] = The drug is tested on Bacteroides dorei strain: DSM17855 for biotransformation. The drug concentrations were measured before and after a 12-h incubation by liquid-chromatography-coupled mass spectrometry (LC–MS); conditions: phocaeicola dorei, 2 µM

Clc1ccc(Cn2c(CN3CCCC3)nc3ccccc32)cc1 [CLEMIZOLE]
Bacterial Biotransformation [1]: Compound NOT metabolized
Bacterial Biotransformation [2]: Compound NOT metabolized
Bacterial Biotransformation [3]: Compound NOT metabolized
Bacterial Biotransformation [4]: Compound NOT metabolized
Bacterial Biotransformation [5]: Compound NOT metabolized
Bacterial Biotransformation [6]: Compound NOT metabolized
Bacterial Biotransformation [7]: Compound NOT metabolized
Bacterial Biotransformation [8]: Compound NOT metabolized
Bacterial Biotransformation [9]: Compound NOT metabolized
Bacterial Biotransformation [10]: Compound NOT metabolized
Bacterial Biotransformation [11]: Compound NOT metabolized
Bacterial Biotransformation [12]: Compound NOT metabolized
Bacterial Biotransformation [13]: Compound NOT metabolized
Bacterial Biotransformation [14]: Compound NOT metabolized
Bacterial Biotransformation [15]: Compound NOT metabolized
Bacterial Biotransformation [16]: Compound NOT metabolized

C[N+]12CCC(CC1)C(OC(=O)C(O)(c1ccccc1)c1ccccc1)C2.[Br-] (stereo unspecified) [CLIDINIUM BROMIDE]
Bacterial Biotransformation [2]: Compound NOT metabolized
Bacterial Biotransformation [17]: Compound NOT metabolized
Bacterial Biotransformation [3]: Compound NOT metabolized
Bacterial Biotransformation [4]: Compound NOT metabolized
Bacterial Biotransformation [18]: Compound NOT metabolized
Bacterial Biotransformation [5]: Compound NOT metabolized
Bacterial Biotransformation [6]: Compound NOT metabolized
Bacterial Biotransformation [7]: Compound NOT metabolized
Bacterial Biotransformation [19]: Compound NOT metabolized
Bacterial Biotransformation [8]: Compound NOT metabolized
Bacterial Biotransformation [10]: Compound NOT metabolized
Bacterial Biotransformation [11]: Compound NOT metabolized
Bacterial Biotransformation [12]: Compound NOT metabolized
Bacterial Biotransformation [13]: Compound NOT metabolized
Bacterial Biotransformation [14]: Compound NOT metabolized
Bacterial Biotransformation [15]: Compound NOT metabolized
Bacterial Biotransformation [16]: Compound NOT metabolized

CCCC(C)(COC(N)=O)COC(=O)NC(C)C (stereo unspecified) [CARISOPRODOL]
Bacterial Biotransformation [1]: Compound metabolized
Bacterial Biotransformation [2]: Compound metabolized
Bacterial Biotransformation [4]: Compound NOT metabolized
Bacterial Biotransformation [18]: Compound NOT metabolized
Bacterial Biotransformation [5]: Compound NOT metabolized
Bacterial Biotransformation [6]: Compound NOT metabolized
Bacterial Biotransformation [7]: Compound metabolized
Bacterial Biotransformation [19]: Compound metabolized
Bacterial Biotransformation [8]: Compound NOT metabolized
Bacterial Biotransformation [9]: Compound NOT metabolized
Bacterial Biotransformation [10]: Compound metabolized
Bacterial Biotransformation [11]: Compound NOT metabolized
Bacterial Biotransformation [13]: Compound NOT metabolized
Bacterial Biotransformation [14]: Compound NOT metabolized
Bacterial Biotransformation [15]: Compound metabolized
Bacterial Biotransformation [16]: Compound metabolized

CC(C)NCC(O)COc1ccc(COCCOC(C)C)cc1.CC(C)NCC(O)COc1ccc(COCCOC(C)C)cc1.O=C(O)/C=C/C(=O)O (stereo unspecified) [BISOPROLOL FUMARATE]
Bacterial Biotransformation [1]: Compound NOT metabolized
Bacterial Biotransformation [17]: Compound NOT metabolized
Bacterial Biotransformation [3]: Compound NOT metabolized
Bacterial Biotransformation [4]: Compound NOT metabolized
Bacterial Biotransformation [5]: Compound NOT metabolized
Bacterial Biotransformation [6]: Compound NOT metabolized
Bacterial Biotransformation [7]: Compound NOT metabolized
Bacterial Biotransformation [19]: Compound NOT metabolized
Bacterial Biotransformation [8]: Compound NOT metabolized
Bacterial Biotransformation [9]: Compound NOT metabolized
Bacterial Biotransformation [11]: Compound NOT metabolized
Bacterial Biotransformation [13]: Compound NOT metabolized
Bacterial Biotransformation [14]: Compound NOT metabolized
Bacterial Biotransformation [15]: Compound NOT metabolized
Bacterial Biotransformation [16]: Compound NOT metabolized

O=C(O)COCCN1CCN(C(c2ccccc2)c2ccc(Cl)cc2)CC1 (stereo unspecified) [CETIRIZINE]
Bacterial Biotransformation [1]: Compound metabolized
Bacterial Biotransformation [2]: Compound metabolized
Bacterial Biotransformation [17]: Compound NOT metabolized
Bacterial Biotransformation [3]: Compound NOT metabolized
Bacterial Biotransformation [5]: Compound NOT metabolized
Bacterial Biotransformation [6]: Compound metabolized
Bacterial Biotransformation [7]: Compound metabolized
Bacterial Biotransformation [19]: Compound metabolized
Bacterial Biotransformation [8]: Compound NOT metabolized
Bacterial Biotransformation [9]: Compound NOT metabolized
Bacterial Biotransformation [10]: Compound metabolized
Bacterial Biotransformation [11]: Compound NOT metabolized
Bacterial Biotransformation [12]: Compound metabolized
Bacterial Biotransformation [13]: Compound NOT metabolized
Bacterial Biotransformation [14]: Compound NOT metabolized
Bacterial Biotransformation [15]: Compound NOT metabolized
Bacterial Biotransformation [16]: Compound metabolized

CC(=O)SCC(Cc1ccccc1)C(=O)NCC(=O)OCc1ccccc1 (stereo unspecified) [RACECADOTRIL]
Bacterial Biotransformation [1]: Compound metabolized
Bacterial Biotransformation [2]: Compound metabolized
Bacterial Biotransformation [4]: Compound NOT metabolized
Bacterial Biotransformation [18]: Compound NOT metabolized
Bacterial Biotransformation [6]: Compound metabolized
Bacterial Biotransformation [7]: Compound metabolized
Bacterial Biotransformation [19]: Compound metabolized
Bacterial Biotransformation [8]: Compound NOT metabolized
Bacterial Biotransformation [9]: Compound NOT metabolized
Bacterial Biotransformation [10]: Compound metabolized
Bacterial Biotransformation [13]: Compound metabolized
Bacterial Biotransformation [14]: Compound metabolized
Bacterial Biotransformation [15]: Compound NOT metabolized

O=C1CN2Cc3c(ccc(Cl)c3Cl)N=C2N1 [ANAGRELIDE]
Bacterial Biotransformation [1]: Compound NOT metabolized
Bacterial Biotransformation [17]: Compound NOT metabolized
Bacterial Biotransformation [3]: Compound NOT metabolized
Bacterial Biotransformation [4]: Compound NOT metabolized
Bacterial Biotransformation [5]: Compound NOT metabolized
Bacterial Biotransformation [6]: Compound NOT metabolized
Bacterial Biotransformation [19]: Compound metabolized
Bacterial Biotransformation [8]: Compound NOT metabolized
Bacterial Biotransformation [10]: Compound NOT metabolized
Bacterial Biotransformation [11]: Compound NOT metabolized
Bacterial Biotransformation [12]: Compound NOT metabolized
Bacterial Biotransformation [14]: Compound NOT metabolized
Bacterial Biotransformation [15]: Compound NOT metabolized
Bacterial Biotransformation [16]: Compound NOT metabolized

CN(C)CCC=C1c2ccccc2C=Cc2ccccc21 [CYCLOBENZAPRINE]
Bacterial Biotransformation [1]: Compound NOT metabolized
Bacterial Biotransformation [17]: Compound NOT metabolized
Bacterial Biotransformation [3]: Compound NOT metabolized
Bacterial Biotransformation [4]: Compound NOT metabolized
Bacterial Biotransformation [18]: Compound NOT metabolized
Bacterial Biotransformation [5]: Compound NOT metabolized
Bacterial Biotransformation [6]: Compound NOT metabolized
Bacterial Biotransformation [7]: Compound NOT metabolized
Bacterial Biotransformation [8]: Compound NOT metabolized
Bacterial Biotransformation [9]: Compound NOT metabolized
Bacterial Biotransformation [10]: Compound NOT metabolized
Bacterial Biotransformation [11]: Compound NOT metabolized
Bacterial Biotransformation [13]: Compound NOT metabolized
Bacterial Biotransformation [14]: Compound NOT metabolized
Bacterial Biotransformation [15]: Compound NOT metabolized
Bacterial Biotransformation [16]: Compound NOT metabolized

Clc1cccc(Cl)c1N=C1NCCN1 [CLONIDINE]
Bacterial Biotransformation [1]: Compound metabolized
Bacterial Biotransformation [2]: Compound metabolized
Bacterial Biotransformation [17]: Compound NOT metabolized
Bacterial Biotransformation [3]: Compound NOT metabolized
Bacterial Biotransformation [4]: Compound NOT metabolized
Bacterial Biotransformation [18]: Compound NOT metabolized
Bacterial Biotransformation [5]: Compound NOT metabolized
Bacterial Biotransformation [6]: Compound NOT metabolized
Bacterial Biotransformation [19]: Compound metabolized
Bacterial Biotransformation [8]: Compound NOT metabolized
Bacterial Biotransformation [9]: Compound NOT metabolized
Bacterial Biotransformation [10]: Compound NOT metabolized
Bacterial Biotransformation [11]: Compound NOT metabolized
Bacterial Biotransformation [13]: Compound NOT metabolized
Bacterial Biotransformation [14]: Compound NOT metabolized
Bacterial Biotransformation [15]: Compound NOT metabolized
Bacterial Biotransformation [16]: Compound metabolized

CC(C)(C#N)c1cc(Cn2cncn2)cc(C(C)(C)C#N)c1 [ANASTROZOLE]
Bacterial Biotransformation [1]: Compound NOT metabolized
Bacterial Biotransformation [2]: Compound metabolized
Bacterial Biotransformation [17]: Compound NOT metabolized
Bacterial Biotransformation [3]: Compound NOT metabolized
Bacterial Biotransformation [4]: Compound NOT metabolized
Bacterial Biotransformation [5]: Compound NOT metabolized
Bacterial Biotransformation [6]: Compound NOT metabolized
Bacterial Biotransformation [7]: Compound NOT metabolized
Bacterial Biotransformation [8]: Compound NOT metabolized
Bacterial Biotransformation [9]: Compound NOT metabolized
Bacterial Biotransformation [11]: Compound NOT metabolized
Bacterial Biotransformation [13]: Compound NOT metabolized
Bacterial Biotransformation [14]: Compound NOT metabolized
Bacterial Biotransformation [15]: Compound NOT metabolized
Bacterial Biotransformation [16]: Compound metabolized
